# In PMC7157763, “Synergy between Cell Surface Glycosidases and Glycan-Binding Proteins Dictates the Utilization of Specific Beta(1,3)-Glucans by Human Gut Bacteroides” (mBio, 2020):
# Legend:
# BuGH158 = target: T1, BuGH158 (Bacteroides uniformis, UniProt A0ABC9NDZ5); test: 1H-NMR of hydrolysis (anomer stereochemistry); format: biochemical; conditions: 50 mM sodium phosphate pH 7.0 in D2O; 20 μM enzyme, 10 mM substrate; retaining
# T1 construct: gene BACUNI_01485; signal peptide and lipidation Cys excluded; N-terminal His6 tag (pMCSG53); E. coli BL21(DE3)
# T1 sequence (A0ABC9NDZ5 19-429 limits assumed): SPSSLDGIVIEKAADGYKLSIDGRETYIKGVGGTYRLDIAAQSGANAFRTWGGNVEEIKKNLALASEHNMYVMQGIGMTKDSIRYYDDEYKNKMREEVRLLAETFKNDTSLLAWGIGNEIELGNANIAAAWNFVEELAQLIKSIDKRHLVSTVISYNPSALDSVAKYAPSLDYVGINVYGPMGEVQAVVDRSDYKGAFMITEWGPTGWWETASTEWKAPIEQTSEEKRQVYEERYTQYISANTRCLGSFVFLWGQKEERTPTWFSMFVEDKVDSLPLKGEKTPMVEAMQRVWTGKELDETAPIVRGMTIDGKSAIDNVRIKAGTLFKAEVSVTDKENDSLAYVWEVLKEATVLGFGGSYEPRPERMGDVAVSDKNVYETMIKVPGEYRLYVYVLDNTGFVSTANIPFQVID
# BuGH3 [1] = target: T2, BuGH3 (Bacteroides uniformis, UniProt A0ABC9NEJ2); test: continuous glucose release assay (hexokinase kit); format: biochemical; conditions: oligosaccharide hydrolysis, exo-acting
# T2 construct: gene BACUNI_01484; signal peptide and lipidation Cys excluded; N-terminal His6 tag (pET28a); E. coli BL21(DE3)
# T2 sequence (A0ABC9NEJ2 20-750): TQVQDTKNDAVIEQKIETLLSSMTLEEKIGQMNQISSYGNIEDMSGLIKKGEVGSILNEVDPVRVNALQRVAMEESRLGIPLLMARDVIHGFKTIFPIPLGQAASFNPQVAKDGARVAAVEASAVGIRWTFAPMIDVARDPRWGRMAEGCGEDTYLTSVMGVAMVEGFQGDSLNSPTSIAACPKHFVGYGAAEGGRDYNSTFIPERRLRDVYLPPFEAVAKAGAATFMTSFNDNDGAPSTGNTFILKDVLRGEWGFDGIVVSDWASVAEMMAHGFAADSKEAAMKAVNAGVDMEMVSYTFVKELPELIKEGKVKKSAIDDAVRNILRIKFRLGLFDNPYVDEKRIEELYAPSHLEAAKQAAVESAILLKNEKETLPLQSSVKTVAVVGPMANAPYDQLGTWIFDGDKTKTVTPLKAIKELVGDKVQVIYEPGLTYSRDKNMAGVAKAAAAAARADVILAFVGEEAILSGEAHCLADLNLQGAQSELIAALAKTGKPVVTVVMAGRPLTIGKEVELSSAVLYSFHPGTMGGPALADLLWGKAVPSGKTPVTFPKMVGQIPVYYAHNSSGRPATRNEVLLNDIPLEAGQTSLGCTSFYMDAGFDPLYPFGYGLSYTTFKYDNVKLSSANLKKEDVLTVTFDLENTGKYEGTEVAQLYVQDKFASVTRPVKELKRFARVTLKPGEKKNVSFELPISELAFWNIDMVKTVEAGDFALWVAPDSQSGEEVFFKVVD
# BuSGBP-B = target: T3, BuSGBP-B (Bacteroides uniformis, UniProt A0ABC9NE57); test: isothermal titration calorimetry; format: binding; conditions: 25 °C; single-site model
# T3 construct: gene BACUNI_01487; signal peptide and lipidation Cys excluded; N-terminal His6 or His6-GST tag (pMCSG53 or pMCSG-GST); E. coli BL21(DE3)
# T3 sequence (A0ABC9NE57 22-457): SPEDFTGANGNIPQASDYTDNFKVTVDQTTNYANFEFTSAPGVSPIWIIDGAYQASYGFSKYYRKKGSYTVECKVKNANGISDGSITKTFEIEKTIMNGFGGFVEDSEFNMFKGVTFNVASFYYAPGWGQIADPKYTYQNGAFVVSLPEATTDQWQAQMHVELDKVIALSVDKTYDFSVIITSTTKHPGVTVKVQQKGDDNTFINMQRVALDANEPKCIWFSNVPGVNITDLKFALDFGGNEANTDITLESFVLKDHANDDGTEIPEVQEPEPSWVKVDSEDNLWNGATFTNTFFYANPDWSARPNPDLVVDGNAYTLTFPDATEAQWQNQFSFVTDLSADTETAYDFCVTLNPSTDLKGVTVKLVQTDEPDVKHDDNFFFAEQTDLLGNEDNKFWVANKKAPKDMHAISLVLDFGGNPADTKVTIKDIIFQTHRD
# BuGH3 [2] = target: T2, BuGH3; test: continuous glucose release assay (hexokinase kit); format: biochemical; conditions: oligosaccharide hydrolysis, exo-acting; remark: listed apart in the source
Structure (SMILES),1H-NMR of hydrolysis (anomer stereochemistry) (BuGH158),Km (BuGH3 [1]),Ka (BuSGBP-B),kcat/Km (BuGH3 [2])
"O=[N+]([O-])c1ccc(O[C@@H]2O[C@H](CO)[C@@H](O)[C@H](O[C@@H]3O[C@H](CO)[C@@H](O)[C@H](O)[C@H]3O)[C@H]2O)c(Cl)c1 [G3G-CNP, 2-chloro-4-nitrophenyl laminaribioside]",NMR analysis of the hydrolysis of 2-chloro-4-nitrophenyl laminaribioside (G3G-CNP),–,–,–
"OC[C@H]1O[C@@H](O[C@@H]2[C@@H](O)[C@H](O[C@H]3[C@H](O)[C@@H](CO)OC(O)[C@@H]3O)O[C@H](CO)[C@H]2O)[C@H](O)[C@@H](O)[C@@H]1O (stereo partly shown) [G3G3G, laminaritriose]",–,Km values decreased between the di- and trisaccharide,The smallest laminari-oligosaccharide bound by BuSGBP-B was the trisaccharide (G3G3G),–
"OC[C@H]1O[C@@H](OC[C@H]2OC(O)[C@H](O)[C@@H](O)[C@@H]2O)[C@H](O)[C@@H](O)[C@@H]1O (stereo partly shown) [G6G, gentiobiose]",–,–,–,kcat/Km value for laminaribiose (G3G) over cellobiose (G4G) and gentiobiose (G6G)
"OC[C@H]1O[C@@H](O[C@H]2[C@H](O)[C@@H](CO)OC(O)[C@@H]2O)[C@H](O)[C@@H](O)[C@@H]1O (stereo partly shown) [G3G, laminaribiose]",–,Km values decreased between the di- and trisaccharide,–,–
"OC[C@H]1O[C@@H](O[C@@H]2[C@@H](O)[C@H](O[C@@H]3[C@@H](O)[C@H](O[C@@H]4[C@@H](O)[C@H](O[C@H]5[C@H](O)[C@@H](CO)OC(O)[C@@H]5O)O[C@H](CO)[C@H]4O)O[C@H](CO)[C@H]3O)O[C@H](CO)[C@H]2O)[C@H](O)[C@@H](O)[C@@H]1O (stereo partly shown) [G3G3G3G3G, laminaripentaose]",–,after which Km values leveled off,affinity increased with degree of polymerization,–
"OC[C@H]1O[C@@H](O[C@H]2[C@H](O)[C@@H](O)C(O)O[C@@H]2CO)[C@H](O)[C@@H](O)[C@@H]1O (stereo partly shown) [G4G, cellobiose]",–,–,–,kcat/Km value for laminaribiose (G3G) over cellobiose (G4G) and gentiobiose (G6G)
"OC[C@H]1O[C@@H](O[C@@H]2[C@@H](O)[C@H](O[C@@H]3[C@@H](O)[C@H](O[C@H]4[C@H](O)[C@@H](CO)OC(O)[C@@H]4O)O[C@H](CO)[C@H]3O)O[C@H](CO)[C@H]2O)[C@H](O)[C@@H](O)[C@@H]1O (stereo partly shown) [G3G3G3G, laminaritetraose]",–,after which Km values leveled off,affinity increased with degree of polymerization,–
